Source: PubChem BioAssay (NCI)
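Abbreviation: GI50, concentration required for 50% inhibition of growth. TGI denotes the concentration required for complete inhibition of growth.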

Columns and labels:
Test in all cases: NCI-60 cell line screen, 384-well format
A498 renal = tested on: A498 renal
A549 NSCLC = tested on: A549 NSCLC
ACHN renal = tested on: ACHN renal
BT-549 breast = tested on: BT-549 breast
COLO 205 colon = tested on: COLO 205 colon
DU-145 prostate = tested on: DU-145 prostate
EKVX NSCLC = tested on: EKVX NSCLC
HCC-2998 colon = tested on: HCC-2998 colon
HCT-116 colon = tested on: HCT-116 colon
HL-60(TB) leukemia = tested on: HL-60(TB) leukemia
HOP-62 NSCLC = tested on: HOP-62 NSCLC
HOP-92 NSCLC = tested on: HOP-92 NSCLC
HS 578T breast = tested on: HS 578T breast
IGROV1 ovarian = tested on: IGROV1 ovarian
K-562 leukemia = tested on: K-562 leukemia
LOX IMVI melanoma = tested on: LOX IMVI melanoma
MALME-3M melanoma = tested on: MALME-3M melanoma
MCF7 breast = tested on: MCF7 breast
MDA-MB-231 breast = tested on: MDA-MB-231 breast
MDA-MB-435 melanoma = tested on: MDA-MB-435 melanoma
MOLT-4 leukemia = tested on: MOLT-4 leukemia
NCI-H226 lung = tested on: NCI-H226 lung
NCI-H322M lung = tested on: NCI-H322M lung
NCI-H460 NSCLC = tested on: NCI-H460 NSCLC
NCI-H522 lung = tested on: NCI-H522 lung
NCI/ADR-RES ovarian = tested on: NCI/ADR-RES ovarian
OVCAR-4 ovarian = tested on: OVCAR-4 ovarian
OVCAR-5 ovarian = tested on: OVCAR-5 ovarian
OVCAR-8 ovarian = tested on: OVCAR-8 ovarian
PC-3 prostate = tested on: PC-3 prostate
RXF 393 renal = tested on: RXF 393 renal
SF-268 CNS = tested on: SF-268 CNS
SF-295 CNS = tested on: SF-295 CNS
SF-539 CNS = tested on: SF-539 CNS
SK-MEL-2 melanoma = tested on: SK-MEL-2 melanoma
SK-MEL-28 melanoma = tested on: SK-MEL-28 melanoma
SK-MEL-5 melanoma = tested on: SK-MEL-5 melanoma
SN12C renal = tested on: SN12C renal
SNB-19 CNS = tested on: SNB-19 CNS
SNB-75 CNS = tested on: SNB-75 CNS
SR leukemia = tested on: SR leukemia
SW-620 colon = tested on: SW-620 colon
T-47D breast = tested on: T-47D breast
TK-10 renal = tested on: TK-10 renal
U251 glioblastoma = tested on: U251 glioblastoma
UACC-257 melanoma = tested on: UACC-257 melanoma
UO-31 renal = tested on: UO-31 renal

Question: Which GI50 (A498 renal) does the source give for `C=CC(=O)N[C@H]1CCOC[C@H]1Nc1ncc2cc(-c3c(Cl)c(OC)cc(OC)c3Cl)ccc2n1` here?
Answer: 10.6 µM

Question: What about the TGI (A498 renal) of the same compound?
Answer: 40.2 µM

Question: What about the GI50 (A549 NSCLC) of the same compound?
Answer: 17.3 µM

Question: And the TGI (A549 NSCLC)?
Answer: 74.2 µM

Question: And the GI50 (ACHN renal)?
Answer: 30.6 µM

Question: What about the TGI (ACHN renal) of the same compound?
Answer: > 100 µM

Question: And the GI50 (BT-549 breast)?
Answer: 4.77 µM

Question: What about the TGI (BT-549 breast) of the same compound?
Answer: 19.5 µM

Question: What about the GI50 (COLO 205 colon) of the same compound?
Answer: 18.2 µM

Question: What about the TGI (COLO 205 colon) of the same compound?
Answer: 46.1 µM

Question: And the GI50 (DU-145 prostate)?
Answer: 27.4 µM

Question: What about the TGI (DU-145 prostate) of the same compound?
Answer: > 100 µM

Question: What about the GI50 (EKVX NSCLC) of the same compound?
Answer: 12.3 µM

Question: And the TGI (EKVX NSCLC)?
Answer: 39.6 µM

Question: What about the GI50 (HCC-2998 colon) of the same compound?
Answer: 16.2 µM

Question: What about the TGI (HCC-2998 colon) of the same compound?
Answer: 32.5 µM

Question: And the GI50 (HCT-116 colon)?
Answer: 15.1 µM

Question: And the TGI (HCT-116 colon)?
Answer: 33.6 µM

Question: What about the GI50 (HL-60(TB) leukemia) of the same compound?
Answer: 9.62 µM

Question: What about the TGI (HL-60(TB) leukemia) of the same compound?
Answer: 22.7 µM

Question: And the GI50 (HOP-62 NSCLC)?
Answer: 20.4 µM

Question: What about the TGI (HOP-62 NSCLC) of the same compound?
Answer: 57.2 µM

Question: And the GI50 (HOP-92 NSCLC)?
Answer: 7.37 µM

Question: And the TGI (HOP-92 NSCLC)?
Answer: 28.2 µM

Question: What about the GI50 (HS 578T breast) of the same compound?
Answer: 12 µM

Question: What about the TGI (HS 578T breast) of the same compound?
Answer: 27.9 µM

Question: What about the GI50 (IGROV1 ovarian) of the same compound?
Answer: 17.9 µM

Question: What about the TGI (IGROV1 ovarian) of the same compound?
Answer: 63.5 µM

Question: And the GI50 (K-562 leukemia)?
Answer: 7.1 µM

Question: And the TGI (K-562 leukemia)?
Answer: 26.9 µM

Question: What about the GI50 (LOX IMVI melanoma) of the same compound?
Answer: 13 µM

Question: And the TGI (LOX IMVI melanoma)?
Answer: 27.3 µM

Question: What about the GI50 (MALME-3M melanoma) of the same compound?
Answer: > 53.7 µM

Question: What about the TGI (MALME-3M melanoma) of the same compound?
Answer: > 100 µM

Question: What about the GI50 (MCF7 breast) of the same compound?
Answer: 11.9 µM

Question: And the TGI (MCF7 breast)?
Answer: 46.4 µM

Question: And the GI50 (MDA-MB-231 breast)?
Answer: 9.96 µM

Question: And the TGI (MDA-MB-231 breast)?
Answer: > 78.7 µM

Question: And the GI50 (MDA-MB-435 melanoma)?
Answer: > 64.3 µM

Question: What about the TGI (MDA-MB-435 melanoma) of the same compound?
Answer: > 100 µM

Question: What about the GI50 (MOLT-4 leukemia) of the same compound?
Answer: 2.59 µM

Question: What about the TGI (MOLT-4 leukemia) of the same compound?
Answer: 14.8 µM

Question: What about the GI50 (NCI-H226 lung) of the same compound?
Answer: 4.55 µM

Question: What about the TGI (NCI-H226 lung) of the same compound?
Answer: 20.8 µM

Question: And the GI50 (NCI-H322M lung)?
Answer: 27.7 µM

Question: What about the TGI (NCI-H322M lung) of the same compound?
Answer: > 100 µM

Question: What about the GI50 (NCI-H460 NSCLC) of the same compound?
Answer: 11.8 µM

Question: What about the TGI (NCI-H460 NSCLC) of the same compound?
Answer: 25.7 µM

Question: And the GI50 (NCI-H522 lung)?
Answer: 13.9 µM

Question: And the TGI (NCI-H522 lung)?
Answer: 32.2 µM

Question: What about the GI50 (NCI/ADR-RES ovarian) of the same compound?
Answer: 12.9 µM

Question: What about the TGI (NCI/ADR-RES ovarian) of the same compound?
Answer: 30.8 µM

Question: What about the GI50 (OVCAR-4 ovarian) of the same compound?
Answer: 14.9 µM

Question: And the TGI (OVCAR-4 ovarian)?
Answer: 54.1 µM

Question: What about the GI50 (OVCAR-5 ovarian) of the same compound?
Answer: 27.5 µM

Question: And the TGI (OVCAR-5 ovarian)?
Answer: > 88.4 µM

Question: And the GI50 (OVCAR-8 ovarian)?
Answer: 16 µM

Question: What about the TGI (OVCAR-8 ovarian) of the same compound?
Answer: 35.1 µM

Question: And the GI50 (PC-3 prostate)?
Answer: 20.3 µM

Question: And the TGI (PC-3 prostate)?
Answer: 66.2 µM

Question: What about the GI50 (RXF 393 renal) of the same compound?
Answer: 8.65 µM

Question: What about the TGI (RXF 393 renal) of the same compound?
Answer: 26.2 µM

Question: What about the GI50 (SF-268 CNS) of the same compound?
Answer: 4.16 µM

Question: What about the TGI (SF-268 CNS) of the same compound?
Answer: 23.9 µM

Question: What about the GI50 (SF-295 CNS) of the same compound?
Answer: 28.1 µM

Question: And the TGI (SF-295 CNS)?
Answer: > 86.7 µM

Question: What about the GI50 (SF-539 CNS) of the same compound?
Answer: 13.5 µM

Question: What about the TGI (SF-539 CNS) of the same compound?
Answer: 28.2 µM

Question: And the GI50 (SK-MEL-2 melanoma)?
Answer: 15.9 µM

Question: What about the TGI (SK-MEL-2 melanoma) of the same compound?
Answer: 30.4 µM

Question: What about the GI50 (SK-MEL-28 melanoma) of the same compound?
Answer: 35.6 µM

Question: And the TGI (SK-MEL-28 melanoma)?
Answer: > 100 µM

Question: And the GI50 (SK-MEL-5 melanoma)?
Answer: 10.9 µM

Question: What about the TGI (SK-MEL-5 melanoma) of the same compound?
Answer: 23.6 µM

Question: And the GI50 (SN12C renal)?
Answer: 15.4 µM

Question: And the TGI (SN12C renal)?
Answer: 75 µM

Question: What about the GI50 (SNB-19 CNS) of the same compound?
Answer: 19.2 µM

Question: What about the TGI (SNB-19 CNS) of the same compound?
Answer: 55.7 µM

Question: What about the GI50 (SNB-75 CNS) of the same compound?
Answer: 6.99 µM

Question: What about the TGI (SNB-75 CNS) of the same compound?
Answer: 33.5 µM

Question: And the GI50 (SR leukemia)?
Answer: 5.39 µM

Question: And the TGI (SR leukemia)?
Answer: 19 µM

Question: And the GI50 (SW-620 colon)?
Answer: 19 µM

Question: What about the TGI (SW-620 colon) of the same compound?
Answer: > 52.5 µM

Question: What about the GI50 (T-47D breast) of the same compound?
Answer: 5.24 µM

Question: And the TGI (T-47D breast)?
Answer: 23 µM

Question: What about the GI50 (TK-10 renal) of the same compound?
Answer: 20.9 µM

Question: What about the TGI (TK-10 renal) of the same compound?
Answer: > 95.6 µM

Question: What about the GI50 (U251 glioblastoma) of the same compound?
Answer: 15 µM

Question: And the TGI (U251 glioblastoma)?
Answer: 36.1 µM

Question: And the GI50 (UACC-257 melanoma)?
Answer: 13.9 µM

Question: And the TGI (UACC-257 melanoma)?
Answer: 38.8 µM

Question: And the GI50 (UO-31 renal)?
Answer: 23.3 µM

Question: And the TGI (UO-31 renal)?
Answer: 98 µM
